Assay results: US8563067B2, “Extended shelf life and bulk transport of perishable organic liquids with low pressure carbon dioxide” (Cornell Research Foundation, Inc., priority 2004, dated 2013)
Read-outs that look alike come from different tables or passages of the source.

Tests used:
[1] = tested on: SPC (total microbial growth) in whole raw milk; test: SPC of bulk raw milk in CO2 pressurized tank container (Example 2); assay type: cell-based; details: bottom of the tank, entire 17 day study
Source text: The apparatus pressurizing and holding raw milk samples consisted of a 5300 U.S. gallon (20,000 liter) food grade, insulated, pressure vessel shipping container of the model HO4 type utilized by Agmark Foods, Inc. Compressed and filtered CO2 from high pressure tank was used, including a Praxair inline 3A sparger. The Agmark shipping container was sanitized on Aug. 4, 2004. The following day, the tank was pre-chilled with a spray of CO2 and filled with 3,291 U.S. gallons of fresh raw milk obtained from the Cornell University Teaching and Research Center Bovine Heard (T&R Center; Dryden, N.Y.) on Aug. 5, 2004. The raw milk from the T&R Center was received less than 12 hours after milking and was introduced from a holding tank into the pressure vessel at a temperature of approximately 1 to 2° C. Prior to filling the pressure vessel, the vessel was sealed and pressurized with carbon dioxide to a pressure of 25 psi (172.5 kPa). Milk was pumped into the tank through the discharge valve at the rear of the tank and CO2 was injected into the flow of the milk with an inline Praxair 3A sparger at a rate sufficient to infuse approximately 2000 parts per million at a gas flow rate of approximately 16 cubic feet per minute. The raw milk was pumped into the vessel at a flow rate of 70 to 80 gallons per minute with flowing CO2 under a 40 psi line pressure and 25 psi tank pressure. […]

[2] = tested on: milk microbiota (SPC, aerobic microorganisms); details: cited from earlier work; for extension in storage life: 30 ppm CO2 (King and Mabbitt, 1982)
Lactobacillus plantarum = details: CO2 pressures of 13 MPa, 30° C., 30 minutes (Hong and Pyun, 1999); cited from earlier work

Compound: O=C=O [CO2, carbon dioxide]
- bacterial levels versus quality limit of 5 log cfu/ml SPC [1]: did not reach the limit
- SPC lower compared to control milk ([2]; 20-30 pmm dissolved CO2, 4 days at 7° C. (Mabbitt, 1982)): 3 log10 cfu/ml
- decrease in bulk raw milk microbiota ([2]; 3997 kPa (or 5800 psi) CO2, ≧40° C., 30 min (Calvo and Bacones, 2001)): 2 log10 cfu/ml
- reduction in aerobic microorganisms in whole milk ([2]; 6044 kPa CO2, 45° C., 24 h (Erkman, 2000)): 6 log10 cfu/ml
- reduction ([2]; 14598 kPa CO2, 25° C., 5-h (Erkman, 1997)): 8 log10 cfu/ml
- reduction of bacterial growth in raw milk ([2]; addition of CO2, storage at 6.7° C. for 48 h (Shipe et al., 1978)): 50%
- extension in storage life ([2]; good quality milk (10^3 cfu/ml)): 3 days
- extension in storage life ([2]; poor quality milk (10^5 cfu/ml)): 1.2 days
- reductions in populations of Lactobacillus plantarum (Lactobacillus plantarum): more than 6 logs
